From ChEMBL document CHEMBL4368904 (J Med Chem, 2019)

Legend:
Adenosine receptor A2a [1] = biological target: T1, Adenosine receptor A2a (Homo sapiens, UniProt P29274); assay: Displacement of [3H]2-[p-(2-carboxyethyl)phenylethylamino]-5-N-ethylcarboxamidoadenosine from human A2A adenosine receptor expressed in HEK293 cell membranes at 10 uM after 60 mins by scintillation proximity assay relative to adenosine 5-N-ethyluronamide
[2] = biological target: T2, Adenosine receptor A3 (Homo sapiens) (UniProt P0DMS8); assay: Displacement of [125I]N6-(4-amino-3-iodobenzyl)adenosine-5-N-methyluronamide from human A3A adenosine receptor expressed in CHO cell membranes at 10 uM after 60 mins by scintillation proximity assay relative to adenosine 5-N-ethyluronamide
T2 sequence (whole entry): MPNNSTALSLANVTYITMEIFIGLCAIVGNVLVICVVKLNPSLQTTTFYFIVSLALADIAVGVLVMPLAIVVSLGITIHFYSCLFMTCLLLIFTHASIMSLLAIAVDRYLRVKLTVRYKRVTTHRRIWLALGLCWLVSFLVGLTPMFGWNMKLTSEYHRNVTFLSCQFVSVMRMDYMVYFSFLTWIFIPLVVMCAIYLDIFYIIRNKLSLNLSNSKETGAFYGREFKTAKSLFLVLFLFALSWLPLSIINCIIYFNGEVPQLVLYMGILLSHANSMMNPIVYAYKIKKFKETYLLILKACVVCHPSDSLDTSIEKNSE

[3] = biological target: Sigma intracellular receptor 2 (Homo sapiens, UniProt Q5BJF2); assay: Inhibition of sigma receptor 2 (unknown origin)
Translocator protein = Translocator protein (Homo sapiens, UniProt P30536); assay: Inhibition of TSPO (unknown origin)
Mus musculus [4] = assay: Induction of hypothermia in C57BL/6J mouse assessed as body temperature at 3 mg/kg, ip measured at 60 mins post dose (reference value: 36.3 +/- 0.8 degC); type: functional
Mus musculus [5] = assay: Induction of hypothermia in C57BL/6J mouse assessed as activity counts at 3 mg/kg, ip measured at 60 mins post dose (reference value: 15.5 +/- 5.5); type: functional
[6] = biological target: Adenosine receptor A2a (Mus musculus) (UniProt Q60613); assay: Displacement of [3H]2-[p-(2-carboxyethyl)phenylethylamino]-5-N-ethylcarboxamidoadenosine from mouse A2A adenosine receptor expressed in HEK293 cell membranes at 10 uM after 60 mins by scintillation proximity assay relative to adenosine 5-N-ethyluronamide
Mus musculus [7] = assay: Induction of hypothermia in C57BL/6J mouse assessed as body temperature at 10 mg/kg, ip measured at 60 mins post dose (reference value: 36.3 +/- 0.8 degC); type: functional
Mus musculus [8] = assay: Induction of hypothermia in C57BL/6J mouse assessed as activity counts at 10 mg/kg, ip measured at 60 mins post dose (reference value: 15.5 +/- 5.5); type: functional
Adenosine receptor A1 = biological target: T3, Adenosine receptor A1 (Mus musculus, UniProt Q60612); assay: Displacement of [3H]N6-R-phenylisopropyladenosine from mouse A1A adenosine receptor expressed in CHO cell membranes after 60 mins by scintillation proximity assay
T3 sequence (Q60612 whole entry): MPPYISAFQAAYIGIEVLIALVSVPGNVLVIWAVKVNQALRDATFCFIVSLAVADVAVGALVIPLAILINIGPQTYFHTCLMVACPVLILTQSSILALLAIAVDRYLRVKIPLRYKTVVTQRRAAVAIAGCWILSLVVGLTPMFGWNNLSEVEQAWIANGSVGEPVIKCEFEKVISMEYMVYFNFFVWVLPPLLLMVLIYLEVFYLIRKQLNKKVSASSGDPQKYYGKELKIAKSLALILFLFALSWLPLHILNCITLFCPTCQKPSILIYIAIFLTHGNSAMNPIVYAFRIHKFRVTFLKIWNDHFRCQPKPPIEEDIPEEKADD

Adenosine receptor A3 [9] = biological target: T4, Adenosine receptor A3 (Mus musculus, UniProt Q61618); assay: Displacement of [125I]N6-(4-amino-3-iodobenzyl)adenosine-5-N-methyluronamide from mouse A3A adenosine receptor expressed in CHO cell membranes after 60 mins by scintillation proximity assay
T4 sequence (Q61618 whole entry): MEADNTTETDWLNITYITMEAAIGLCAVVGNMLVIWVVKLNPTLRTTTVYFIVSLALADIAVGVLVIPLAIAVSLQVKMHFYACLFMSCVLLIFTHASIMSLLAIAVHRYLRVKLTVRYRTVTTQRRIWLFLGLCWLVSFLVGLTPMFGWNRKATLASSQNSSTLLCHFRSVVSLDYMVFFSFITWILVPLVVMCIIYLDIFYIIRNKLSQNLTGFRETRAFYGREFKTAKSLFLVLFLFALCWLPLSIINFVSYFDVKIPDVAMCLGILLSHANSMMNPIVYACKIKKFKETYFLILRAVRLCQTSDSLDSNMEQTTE

[10] = biological target: 5-hydroxytryptamine receptor 2B (Homo sapiens, UniProt P41595); assay: Inhibition of 5HT2B (unknown origin)
[11] = biological target: T5, Adenosine receptor A1 (Homo sapiens) (UniProt P30542); assay: Displacement of [3H]N6-R-phenylisopropyladenosine from human A1A adenosine receptor expressed in CHO cell membranes at 10 uM after 60 mins by scintillation proximity assay relative to adenosine 5-N-ethyluronamide
T5 sequence (whole entry): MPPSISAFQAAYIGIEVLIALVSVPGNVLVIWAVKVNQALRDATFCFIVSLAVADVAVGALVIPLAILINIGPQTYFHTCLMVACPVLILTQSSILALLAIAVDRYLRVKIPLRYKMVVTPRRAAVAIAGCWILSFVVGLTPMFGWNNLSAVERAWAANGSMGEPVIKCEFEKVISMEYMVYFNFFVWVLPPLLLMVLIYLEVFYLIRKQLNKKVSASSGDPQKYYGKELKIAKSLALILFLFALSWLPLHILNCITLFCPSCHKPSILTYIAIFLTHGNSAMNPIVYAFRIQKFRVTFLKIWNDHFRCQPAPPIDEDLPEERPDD

[12] = biological target: T6, Adenosine receptor A3 (Mus musculus) (UniProt Q61618); assay: Displacement of [125I]N6-(4-amino-3-iodobenzyl)adenosine-5-N-methyluronamide from mouse A3A adenosine receptor expressed in CHO cell membranes at 10 uM after 60 mins by scintillation proximity assay relative to adenosine 5-N-ethyluronamide
T6 sequence (whole entry): T4 sequence (Q61618 whole entry)

Adenosine receptor A2a [13] = biological target: T1, Adenosine receptor A2a; assay: Displacement of [3H]2-[p-(2-carboxyethyl)phenylethylamino]-5-N-ethylcarboxamidoadenosine from human A2A adenosine receptor expressed in HEK293 cell membranes after 60 mins by scintillation proximity assay
Adenosine receptor A3 [14] = biological target: T7, Adenosine receptor A3 (Homo sapiens, UniProt P0DMS8); assay: Displacement of [125I]N6-(4-amino-3-iodobenzyl)adenosine-5-N-methyluronamide from human A3A adenosine receptor expressed in CHO cell membranes after 60 mins by scintillation proximity assay
T7 sequence (P0DMS8 whole entry): T2 sequence (whole entry)

Chain of Translocator protein (P30536 whole entry): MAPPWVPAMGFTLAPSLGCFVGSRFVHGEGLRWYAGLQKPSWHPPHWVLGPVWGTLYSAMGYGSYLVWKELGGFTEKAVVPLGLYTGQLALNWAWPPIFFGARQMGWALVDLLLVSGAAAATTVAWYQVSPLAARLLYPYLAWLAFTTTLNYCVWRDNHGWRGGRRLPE
Chain of Sigma intracellular receptor 2 (Q5BJF2 whole entry): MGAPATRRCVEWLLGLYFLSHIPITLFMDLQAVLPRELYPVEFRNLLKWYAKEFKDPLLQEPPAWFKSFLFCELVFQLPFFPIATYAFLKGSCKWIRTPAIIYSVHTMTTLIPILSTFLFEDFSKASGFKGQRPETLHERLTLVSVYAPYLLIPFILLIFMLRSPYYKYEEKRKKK
T1 sequence (P29274 whole entry): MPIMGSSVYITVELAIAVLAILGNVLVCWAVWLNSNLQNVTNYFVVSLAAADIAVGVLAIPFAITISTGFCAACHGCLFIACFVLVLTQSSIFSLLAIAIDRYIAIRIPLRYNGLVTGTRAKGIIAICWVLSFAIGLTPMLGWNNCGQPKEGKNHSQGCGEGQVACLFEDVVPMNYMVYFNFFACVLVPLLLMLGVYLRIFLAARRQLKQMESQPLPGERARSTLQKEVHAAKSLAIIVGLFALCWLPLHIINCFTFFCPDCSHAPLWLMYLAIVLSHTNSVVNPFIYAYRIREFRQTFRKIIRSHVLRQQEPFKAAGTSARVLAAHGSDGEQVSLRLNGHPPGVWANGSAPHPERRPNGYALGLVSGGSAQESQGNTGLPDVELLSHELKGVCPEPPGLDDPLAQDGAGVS
Chain of Adenosine receptor A2a (Mus musculus) (Q60613 whole entry): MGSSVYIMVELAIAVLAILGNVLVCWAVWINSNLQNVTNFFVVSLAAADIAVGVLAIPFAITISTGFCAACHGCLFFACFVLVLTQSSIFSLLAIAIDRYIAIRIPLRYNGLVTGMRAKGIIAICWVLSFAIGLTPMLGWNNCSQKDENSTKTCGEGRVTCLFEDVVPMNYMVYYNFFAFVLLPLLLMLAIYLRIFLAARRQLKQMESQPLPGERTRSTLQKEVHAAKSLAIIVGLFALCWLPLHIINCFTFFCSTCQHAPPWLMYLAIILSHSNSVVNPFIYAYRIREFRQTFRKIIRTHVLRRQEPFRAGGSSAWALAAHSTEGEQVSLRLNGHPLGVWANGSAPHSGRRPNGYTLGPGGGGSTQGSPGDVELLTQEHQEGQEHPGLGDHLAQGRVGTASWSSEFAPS
Chain of 5-hydroxytryptamine receptor 2B (P41595 whole entry): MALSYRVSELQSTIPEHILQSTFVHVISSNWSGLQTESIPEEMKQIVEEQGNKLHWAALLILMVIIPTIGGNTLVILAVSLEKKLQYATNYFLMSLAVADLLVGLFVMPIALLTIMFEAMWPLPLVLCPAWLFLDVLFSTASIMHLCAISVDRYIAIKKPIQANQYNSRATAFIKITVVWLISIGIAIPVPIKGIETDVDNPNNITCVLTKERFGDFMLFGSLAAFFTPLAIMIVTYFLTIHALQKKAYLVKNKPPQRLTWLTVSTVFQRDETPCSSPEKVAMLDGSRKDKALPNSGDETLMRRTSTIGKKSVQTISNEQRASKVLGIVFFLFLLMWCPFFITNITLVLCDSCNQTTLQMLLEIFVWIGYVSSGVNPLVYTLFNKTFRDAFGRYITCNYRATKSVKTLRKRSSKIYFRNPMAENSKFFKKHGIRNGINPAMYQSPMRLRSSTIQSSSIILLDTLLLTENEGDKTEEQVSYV

Row | SMILES | inhibition (Adenosine receptor A2a [1]) [%] | inhibition [2] [%] | Ki [3] [nM] | Ki (Translocator protein) [nM] | inhibition [11] [%] | further results
1 | OC[C@@]12C[C@@H]1[C@@H](n1cnc3c(NC(C4CCC4)C4CCC4)nc(Cl)nc31)[C@H](O)[C@@H]2O | 55 | 25 |  | 2930 |  | inhibition [6]: 26%; T (Mus musculus [7]): 36.6 °C; Activity (Mus musculus [8]): 18.4
2 | CNC(=O)[C@]12C[C@@H]1[C@@H](n1cnc3c(NC4CCCC4)nc(Cl)nc31)[C@H](O)[C@@H]2O |  |  |  |  |  | Ki (Adenosine receptor A1): 0.68 nM; Ki (Adenosine receptor A3 [9]): 3.46 nM; Ki [10]: 12 nM
3 | CCOC(=O)[C@@]12C[C@@H]1[C@@H](n1cnc3c(NC(C4CCC4)C4CCC4)nc(Cl)nc31)[C@H](O)[C@@H]2O | 57 |  | 2020 |  |  | 
4 | OC[C@@]12C[C@@H]1[C@@H](n1cnc3c(N[C@H]4C[C@H]5CC[C@@H]4C5)nc(Cl)cc31)[C@H](O)[C@@H]2O | 29 |  |  |  |  | 
5 | O[C@@H]1[C@H](O)[C@@H](CCl)O[C@H]1n1cnc2c(NC(C3CCC3)C3CCC3)ncnc21 |  |  | 662 | 3980 |  | T (Mus musculus [7]): 35.8 °C; Activity (Mus musculus [8]): 20.5
6 | O[C@@H]1[C@H](O)[C@@H](CCl)O[C@H]1n1cnc2c(NC3C[C@H]4CC[C@@H]3C4)ncnc21 (mixture of isomers) |  |  |  |  |  | Ki (Adenosine receptor A2a [13]): 1340 nM; Ki (Adenosine receptor A3 [14]): 1290 nM; Ki (Adenosine receptor A3 [9]): 2410 nM; T (Mus musculus [4]): 32.2 °C; Activity (Mus musculus [5]): 2.8
7 | O[C@H]1[C@H](n2cnc3c(NC(C4CCC4)C4CCC4)nc(Cl)nc32)[C@H]2C[C@@]2(CSc2ccccc2F)[C@H]1O | 22 |  | 583 |  | 45 | inhibition [6]: 20%

More lines, main results first:

Row | inhibition (Adenosine receptor A2a [1]) [%] | inhibition [2] [%] | Ki [3] [nM] | Ki (Translocator protein) [nM] | inhibition [11] [%] | SMILES | further results
8 | 38 | 49 | 1170 | 2020 |  | O[C@H]1[C@H](n2cnc3c(NC(C4CCC4)C4CCC4)ncnc32)[C@H]2C[C@@]2(CCl)[C@H]1O | T (Mus musculus [4]): 35.9 °C; Activity (Mus musculus [5]): 14.8
9 | 14 | 22 | 1720 |  | 6 | COC(=O)c1ncn([C@H]2[C@H](O)[C@H](O)[C@]3(CO)C[C@H]23)n1 | inhibition [12]: 15%
10 | 11 | 32 | 796 |  | 24 | Nc1ncnc2c1ncn2[C@@H]1O[C@H](C(=O)O)[C@@H](O)[C@H]1O [5'-CARBOXY ADENOSINE] | 
